Reference: a melting point compilation (Tetko et al.; mined from patent text by program, amines drawn as free bases though some values may be those of a salt)

Row | melting point [°C] | SMILES
1 | 235 to 237 | COc1nc2ccccc2nc1NC(=S)N1CCN(c2ccc(C(C)=O)cc2)CC1
2 | 93 to 94 | CCCc1cc(NC(=O)C(=O)OCC)sc1C(=O)OCC
3 | 105 to 106 | CCCCCCCCNc1ccc2c(C)nc(CC3OC(CO)C(O)C3O)n2n1 (stereo unspecified)
4 | 144 | CCC(=O)N(Cc1ccc(OC(F)(F)F)cc1)c1cc(Cl)cc(-c2nnn[nH]2)c1
5 | 177 to 180 | O=c1[nH]c(=O)n(C2CC(F)C(CF)O2)cc1C=CBr (stereo unspecified)
6 | 98 to 101 | C=CCc1c2c(cc3c(=O)cc(C(=O)OCC)oc13)CCCC2
7 | 111 to 113 | CCCc1ccc(S(=O)(=O)c2ccc(F)cc2)cc1S(=O)(=O)NCCc1cccnc1
8 | 199 | Cc1cc(-c2cc(C(F)F)n3ncc(C(=O)Nc4cccc(S(=O)(=O)NC5CC5)c4)c3n2)ccc1C(F)(F)F
9 | 239 to 240 | COc1cc(Cl)c2c(c1)NC(=O)C(C)(c1ccc(Br)cc1)C2=O (stereo unspecified)
10 | 75 to 78 | CC(=O)OCCOc1ccc(C2C(=O)Oc3c2cc(C(C)(C)C)cc3C(C)(C)C)cc1 (stereo unspecified)
11 | 161 to 163 | CCOc1nc2c(c3ccccc13)c1cc(Cl)ccc1n2C
12 | 201 to 204 | CCOc1ccc(-n2c(-c3ccncc3)nc(SC)c(C#N)c2=O)cc1
13 | 57 to 60 | COc1cccc2c1OC(CN1CCC(CNC(=O)c3cccnc3N)CC1)CO2 (stereo unspecified)
14 | 87 to 90 | CCc1ccc(-c2cc3c(O)cccc3o2)s1
15 | 82 to 85 | Cc1ccc2cccc(OCc3c(Cl)ccc(C4OCCO4)c3Cl)c2n1
16 | 182 to 183 | COc1cc(OC)nc(NC(=O)NS(=O)(=O)c2ccccc2-c2nccn2C)n1
17 | 186 | CC(=O)N1CCOc2ccc(C3=NNC(=O)CC3C)cc21 (stereo unspecified)
18 | 122 | CC(C)(C)Sc1c(CC(C)(C)C(=O)O)n(Cc2ccc(Cl)cc2)c2ccc(OCc3ccc4cccnc4n3)cc12
19 | 94 to 95 | COc1ccccc1N1CCN(CCCCN2CCN(c3ccccc3)C2=O)CC1
20 | 195 to 200 | N#Cc1ccc(NC(=N)Nc2ccc(C#N)cc2)cc1
21 | 164 to 167 | Cc1nc(N)c2ncn(CCCCNC(=O)N3CCOCC3)c2c1C
22 | 104 to 109 | COc1ccc([N+](=O)[O-])c(/C=C/c2cc(/C=C/c3ccc4cc[nH]c4c3)n[nH]2)c1
23 | 265 to 266 | O=C(NC1CCCNC1)c1ccc2[nH]ncc2c1 (stereo unspecified)

Row | melting point [°C] | SMILES
24 | 272 to 273 | Cn1c(=O)c(-c2ccc(Cl)cc2Cl)cc2c3cc(-c4csc(N)n4)ccc3n(C)c21
25 | 265 to 267 | COc1ccc(Cl)cc1-c1c(N)c(=O)[nH]c2cc(C(F)(F)F)cc(C(F)(F)F)c12
26 | 223 | COc1ccc(O)c2c1SC1CC3C(NC(=S)c4ccccc4)C(O)=C(C(N)=O)C(=O)C3(O)C(O)=C1C2=O (stereo unspecified)
27 | 129 to 130 | CC(C)C(=O)c1c(-c2ccc(F)cc2)nn2cc(C(F)(F)F)ccc12
28 | 69 to 72 | CC(N1CCN(c2ncn(Cc3ccc(C(F)(F)F)cc3)n2)CC1)C(O)(Cn1cncn1)c1ccc(F)cc1F (stereo unspecified)
29 | 100 | C=CCOc1ccc(C(O)CN2CCN(C(c3ccccc3)c3ccccc3)CC2)cc1 (stereo unspecified)
30 | 294 to 296 | N#Cc1c(=O)[nH]c2cc(Cl)c(Cl)cc2[n+]1[O-]
31 | 66 to 69 | CCCCOC(=O)c1cc2cccc(OC)c2[nH]1
32 | 115 | N#Cc1ccc(C(=O)N2CCN(C(=O)[C@@H]3CCCN3S(=O)(=O)c3ccc(Cl)c(CBr)c3Cl)CC2)cc1
33 | 116 to 117 | O=c1ccc2ccc(CO)cc2o1
34 | 171 to 172 | CCOP(=O)(Cc1ccc(C(=O)Nc2ccccc2C(=O)O)cc1)OCC
35 | 141 to 143 | CC(C)(C)OC(=O)N1CCC(N2CCN(CCCN3CCCCC3)C2=C(C#N)C#N)CC1
36 | 148 to 150 | COC(=O)c1cc(C(=O)OC)cc(S(N)(=O)=O)c1
37 | 136 to 137 | CCCn1c(=O)c2[nH]c([C@H](C)c3ccccc3)nc2n(CCC)c1=O
38 | 191 to 193 | CN(C)S(=O)(=O)c1cccc(Nc2ncc3cc4ccccc4n3n2)c1
39 | 220 to 221 | CC#CC(=O)Nc1ccc(-n2nc(C(F)(F)F)cc2C(F)(F)F)cc1
40 | 163 to 164 | O=C(Oc1ccc([N+](=O)[O-])cc1)C(O)C(O)C(=O)Oc1ccc([N+](=O)[O-])cc1 (stereo unspecified)
41 | 220 to 240 | COc1ccc(Nc2nc(-c3ccccc3)cc(N3CCC(O)CC3)n2)cc1Cl
42 | 213 to 214 | N#Cc1c(NC(=O)C2CCCCC2)sc(-c2ccccc2)c1[N+](=O)[O-]
43 | 171 | COc1cc2ccc3c4cc5c(cc4ncc3c2cc1OC)OCO5
44 | 110 to 111 | CCOc1ccc(S(=O)(=O)N2CCN(C)CC2)cc1C(=O)OC
45 | 74 to 75 | CCOCc1c2ccccc2cc2ccccc12
46 | 138 to 139 | O=Cc1ccc2ccnc(NC(=O)c3ccccc3)c2c1

Row | melting point [°C] | SMILES
47 | 230 to 232 | CC(C)(C)OC(=O)N1CCc2cc(NC(=O)NCc3ccc4c(c3)CN(C3CCC(=O)NC3=O)C4=O)ccc2C1 (stereo unspecified)
48 | 126 to 128 | CC1(C)Oc2ccc(OCc3ccccc3)cc2C(O)C1Br (stereo unspecified)
49 | 105 to 108 | O=C(Nc1ccc(S(=O)(=O)c2ccccc2)cc1)C(O)(C(F)F)C(F)F
50 | 118 to 119 | COC(=O)c1c(-c2ccc(F)cc2)c2cc(OCc3ccccc3)ccc2c(=O)n1CC(C)C
51 | 122 | COC(=O)C1(C)CN(C(=O)Nc2ccc(Cl)cc2)N=C1c1ccc(Cl)cc1 (stereo unspecified)
52 | 179 to 181 | CCOCc1nc2c(N)nc3ccccc3c2n1OC(C)C
53 | 108 to 109 | Cn1nc(-c2ncc(Cl)cc2F)c([N+](=O)[O-])c1OC(F)F
54 | 121 | CCOC(=O)C1=C(N2CCCC2)N=C(C)C(C(=O)OCC)C1c1cccc2ccccc12 (stereo unspecified)
55 | 175 to 176 | Nc1ccc(N2CCN(Cc3ccccc3)CC2)nc1CS(=O)(=O)c1ccccc1
56 | 120 to 122 | CC(C)(C)OC(=O)N1C[C@H](NS(=O)(=O)c2ccc(Cl)cc2)C[C@H]1C=O
57 | 212 to 214 | COc1ccc(C(=O)Nc2ccccc2)cc1NS(=O)(=O)c1ccc(C(=O)O)cc1
58 | 141 to 142 | CCOC(=O)c1cn(-c2cc(NC(=O)OC(C)(C)C)c(F)cc2F)c2c(C)c(F)c(F)c(C)c2c1=O
59 | 103 to 105 | CCCCOC(=O)Cc1ccc(N2CCN(CCc3cc(C(C)(C)C)c(O)c(C(C)(C)C)c3)CC2)cc1
60 | 73 to 74 | CCOC(=O)C(C)(C)Oc1ccc(CNc2ccc(Cl)cc2)cc1OC
61 | 126 to 127 | CO[C@]1(c2cc(F)cc(Oc3ccc(/C(C)=N/O)cc3)c2)CCO[C@@H]1C (racemic)
62 | 115 to 116 | CCC(CC)n1nc(-c2ccc(OC)cc2OC)c2cccc(C(F)(F)F)c21
63 | 258 to 263 | O=c1c2c(O)c(O)ccc2c2cc(O)c(O)cc2n1Cc1ccc([N+](=O)[O-])cc1
64 | 150 | Cc1cc(C)n(C(=O)C(C)NS(=O)(=O)c2ccc(Cl)cc2)n1 (stereo unspecified)
65 | 188 to 190 | N#Cc1cc(-c2ccoc2)c2ccc(COc3cc(F)cc(-c4ccc(Cl)cc4Cl)c3)cc2n1
66 | 231 to 232 | Cc1nc(CC2OC(CO)C(O)C2O)n2nc(N(C)C)ccc12 (stereo unspecified)
67 | 86 to 86.5 | Cc1cc(C#N)ccc1-c1cccc(C=O)c1
68 | 80 to 83 | COc1cc(F)ccc1C(C)(C)CC#N
69 | 124 to 125 | O=c1ccn(-c2ccccc2F)nc1-c1ccnn1-c1ccccc1

Row | melting point [°C] | SMILES
70 | 77 to 78 | CCOC(=O)[C@H]1CCc2ccc(O)cc2O1
71 | 152 to 154 | COCn1ccnc1C(O)(c1ccccc1)c1cccc(C(F)(F)F)c1 (stereo unspecified)
72 | 146 to 147 | COc1cc2ncnc(N3CCc4cccc(C)c43)c2cc1OC
73 | 59 to 64 | CCCCN(CC(=O)OCc1ccccc1)S(=O)(=O)c1ccc(N2CCC(NC[C@H](O)c3ccc(O)c(NS(C)(=O)=O)c3)CC2)cc1
74 | 169 to 172 | COc1ccc(-c2nc3sccn3c2/C=C/C(=O)c2cccs2)cc1
75 | 121 to 123 | c1ccc2nc3c(nc2c1)OCC1CCCN31 (single isomer, unassigned; (+))
76 | 153 to 155 | Cc1cscc1-c1nc(-c2c(F)cccc2Cl)nn1C
77 | 146 to 147 | O=C(O)c1ccccc1Oc1ccc(F)cc1
78 | 210 | Cc1cccc(N(CCO)Cc2ccc3nc(N)n(Cc4nc(C)ccc4O)c3c2)c1
79 | 170 to 172 | O=C1CCC(N2Cc3c(OCc4ccc(CN5CCS(=O)CC5)cc4)cccc3C2=O)C(=O)N1 (stereo unspecified)
80 | 157 | CCN(CC)S(=O)(=O)c1cc2oc(-c3ccccc3)nc2c2ccccc12
81 | 238 to 241 | CCN1CCCc2cc(C=C3SC(=O)NC3=O)ccc21
82 | 108 to 111 | COc1ccccc1CC(=O)N1CCCc2ncc3ccccc3c21
83 | 94 to 96.5 | Cc1nn(-c2cc(OC(C)C)c(Cl)cc2F)c(C)c1N
84 | 59 to 61 | CCOC(=O)C(=O)N(CCN=[N+]=[N-])N=Cc1ccccc1
85 | 183 | O=C1c2ccccc2C(O)N1CCN1CCC(Cc2c[nH]c3ccc(F)cc23)CC1 (racemic)
86 | 153 to 156 | Cc1noc(NC(=O)c2cnccc2C(F)(F)F)c1Cl
87 | 175 | CC(=O)NCn1cc(-c2nc(Nc3ccccn3)sc2C)cn1
88 | 198 to 200 | CCOCc1nc2c(N)nc3c(c2n1NCCCNC(C)=O)CCCC3
89 | 105 | COC1CCc2[nH]c3ccccc3c2C1 (stereo unspecified)
90 | 183 to 184 | CCOC(=O)C1=C(C)Nc2cc[nH]c(=O)c2C1c1ccccc1F (stereo unspecified)
91 | 109 to 110 | CC(C)(c1ccc(S(=O)(=O)N(CCO)CCO)cc1[N+](=O)[O-])[N+](=O)[O-]
92 | > 300 | O=C1CCC(c2ccc3[nH]c(-c4ccnnc4)cc3c2)=NN1

Row | SMILES | melting point [°C]
93 | O=C(c1cccc2ccccc12)P1(=O)Oc2ccccc2-c2ccccc21 (stereo unspecified) | 149 to 151
94 | COc1ccc(C(=O)Nc2ccccc2)c(CC2CCCCN2)c1 (stereo unspecified) | 108 to 109
95 | COC1(c2ccc3ccccc3c2)OOC12C1CC3CC(C1)CC2C3 (stereo unspecified) | 116
96 | CCOC(=O)c1cc2c3n(ccc-2n1)CC(CCl)=N3 | 270 to 272
